According to paper PMC7495481, “Sequence specificity analysis of the SETD2 protein lysine methyltransferase and discovery of a SETD2 super-substrate” (Communications Biology, 2020):

Experiments:
Format in all cases: biochemical
[1] = system: NSD1; assay: Peptide methylation by NSD1; details: peer review file
Text: We, therefore, repeated the peptide array used for the development of the SETD2 super-substrate, which is shown in Figure 2A of our manuscript for NSD1 and NSD2. […]
that this mutation specifically increases the activity of these two enzymes. In contrast, with […]
combined with H39N/K. Importantly, in case of SETD2 H39N only has an effect in the context of the other mutations in ssK36. We conclude that the ssK36 substrate is specifically optimized for SETD2 as expected given the workflow of our experiments. The finding that H39N increases the activity of NSD1 and NSD2 is interesting and deserves additional work. It […]
conducted with NSD1 and NSD2. The SETD2 panel is taken from the manuscript for comparison. The table indicates the peptide compositions. Note, the gradual increase of methylation with increasing number of mutations in the case of SETD2. In case of NSD1 and NSD2, increased methylation is solely due to the H39N mutation , which has a weaker […]

[2] = molecular target: T1, SETD2 (Homo sapiens, UniProt Q9BYW2); assay: Methylation of purified ssK36 and H3K36 peptides, Tricine gel autoradiography; details: 20 µM peptide, 6 µM SETD2, 0.76 µM AdoMet, 3 h, 25 °C; densitometry, three independent experiments, ± SD
T1 construct: SETD2 catalytic SET domain (amino acids 1347–1711, UniProt No: Q9BYW2); made in house; host or cells: E. coli
T1 sequence (Q9BYW2 1347-1711): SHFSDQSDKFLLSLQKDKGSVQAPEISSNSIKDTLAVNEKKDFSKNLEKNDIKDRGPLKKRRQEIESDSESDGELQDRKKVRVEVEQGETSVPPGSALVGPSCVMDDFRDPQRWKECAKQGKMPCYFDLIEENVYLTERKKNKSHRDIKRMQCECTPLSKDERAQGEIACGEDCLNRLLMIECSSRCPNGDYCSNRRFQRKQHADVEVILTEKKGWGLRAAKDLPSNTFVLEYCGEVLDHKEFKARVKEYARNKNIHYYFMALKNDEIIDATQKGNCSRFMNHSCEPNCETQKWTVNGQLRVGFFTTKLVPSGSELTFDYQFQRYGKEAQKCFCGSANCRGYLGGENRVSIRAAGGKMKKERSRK
Text: To compare the methylation rates of the H3K36 and super-substrate peptides directly, purified ssK36 and H3K36 were methylated by SETD2, resolved on a Tricine gel and the methylation activity captured by autoradiography (Fig. 2b). To allow direct comparison of the methylation levels of both substrates, methylated ssK36 was loaded in different dilutions on the same gel.
The H3K36 (27–43) and the H3K36M (27–43) peptides were purchased from Intavis AG (Köln, Germany) and the ssK36 peptide (29–43) and the ssK36M peptide (29–43) were from Innovative Peptide Solutions (Berlin, Germany). If not indicated otherwise, peptide methylation reactions were performed using 20 µM peptide and 6 µM SETD2 in 20 µl methylation buffer supplemented with 0.76 µM radioactive labeled AdoMet (PerkinElmer) for 3 h at 25 °C. The reactions were halted by the addition of Tricine-SDS-PAGE loading buffer and incubation for 5 min at 95 °C. Afterward the samples were separated by Tricine-SDS-PAGE, which was followed by the incubation of the gel in amplify NAMP100V (GE Healthcare) for 45 min on a shaker and drying of the gel for 2 h at 55 °C in vacuum. The signals of the transferred radioactive labeled methyl groups were detected by autoradiography using a hyperfilm^TM high performance autoradiography film (GE Healthcare) at −80 °C in the dark. […]

[3] = molecular target: T1, SETD2; assay: Single turnover time course of ssK36 methylation; details: 5 µM substrate, 6 µM enzyme; average ± SEM
Experimental: The H3K36 (27–43) and the H3K36M (27–43) peptides were purchased from Intavis AG (Köln, Germany) and the ssK36 peptide (29–43) and the ssK36M peptide (29–43) were from Innovative Peptide Solutions (Berlin, Germany). If not indicated otherwise, peptide methylation reactions were performed using 20 µM peptide and 6 µM SETD2 in 20 µl methylation buffer supplemented with 0.76 µM radioactive labeled AdoMet (PerkinElmer) for 3 h at 25 °C. The reactions were halted by the addition of Tricine-SDS-PAGE loading buffer and incubation for 5 min at 95 °C. Afterward the samples were separated by Tricine-SDS-PAGE, which was followed by the incubation of the gel in amplify NAMP100V (GE Healthcare) for 45 min on a shaker and drying of the gel for 2 h at 55 °C in vacuum. The signals of the transferred radioactive labeled methyl groups were detected by autoradiography using a hyperfilm^TM high performance autoradiography film (GE Healthcare) at −80 °C in the dark. The film was developed with an Optimax Typ TR machine after different exposure times.
Time courses of ssK36 methylation were analyzed by fitting to an exponential reaction progress curve (Eq. 1). Initial rates of single turnover reactions were determined using the first derivative of eq. 1 at t = 0. Signal=BL+F×1−exp^−kst×t […]

fold more efficient methylation of ssK36 than wild type H3K36 peptide [2]: 50 ± 4 fold
single turnover methylation rate constant kst [3]: 4.07 ± 0.39 h⁻¹
Sequence: APRFGGVKRPNRYRP [ssK36, super-substrate peptide with four amino acid exchanges (A31R, T32F, K37R, H39N)]
methylation by NSD1 [1]: better substrate than H3K36
